# In US20230406906A1, “SERPIN PEPTIDES AND METHODS OF USING THE SAME” (SERPIN PHARMA, LLC, priority 2022, published 2023):
# Key:
# [1] = test system: NFκB; test: NFκB reporter assay (THP1-XBlue-MD2-CD14 cells, LPS, SEAP read-out); type: cell-based; conditions: peptide 50 μg/ml before LPS 5 ng/ml, overnight
# Procedure: The reporter cells (THP1-XBlue-MD2-CD14 cells) were treated with each peptide (50 μg/ml) before being insulted with LPS (5 ng/ml) and incubated overnight. The NFκB inducible Secreted Embryonic Alkaline Phosphatase (SEAP) was measured in the supernatant and read for absorbance.
# [2] = biological target: T1, LRP1 (Rattus norvegicus, UniProt G3V928); test: Cell signaling analysis in PC12 cells (phospho-ERK1/2, phospho-Akt immunoblot); type: cell-based
# T1 construct: host or cells: rat PC12 cells
# Procedure: Cell signaling analysis: Rat PC12 cells were purchased from ATCC (CRL-1721). PC12 cells were maintained in high glucose DMEM (Gibco, USA) containing 10% heat-inactivated FBS (Gibco, USA), 5% HyClone heat-inactivated horse serum (Cytiva, USA), penicillin (100 units/ml) and streptomycin ([…]) in 6-well plates that were pre-coated with 0.01 mg/ml type IV collagen (Sigma-Aldrich, St. Louis, MO, USA). Cells were transferred to serum-free medium (SFM) 4 h prior to adding effectors, and then treated with SP163M (2.4, 24 or 240 nM); EI-tPA (12 nM), NGF (0.36 nM), or vehicle (PBS) for 10 min. In some cases, cells were pre-incubated with the competitive antagonist of LRP1, GST-RAP (150 nM) for 15 min or electroporated using the Rat Neuron Nucleofector Amaxa Kit (Lonza Biosciences) and incubated with siRNA to silence LRP1 expression (siLRP1; M-094191-01-0010, Dharmacon) for 48 h. Control cells were transfected with non-targeting control (NTC) siRNA (NTC; D-001810-10-05, Dharmacon). Cells were rinsed with ice-cold PBS and proteins were extracted in RIPA buffer (20 mM sodium phosphate, 150 mM NaCl, pH 7.4, 1% Triton X-100, 0.5% sodium deoxycholate, 0.1% SDS) supplemented with protease and phosphatase inhibitors (Roche Diagnostics, USA). After 30 min on ice, lysates were centrifuged at 15000×g for 5 min, supernatant collected and stored at −20° C. Equal amounts of protein from cell lysates (20 μg), as determined by BCA Protein Assay (ThermoFisher Scientific, Waltham, MA, USA), were subjected to 10% SDS-PAGE and electro-transferred to nitrocellulose membranes. The membranes were blocked with 5% nonfat dried milk and then incubated with primary anti-phospho-AKT (Cell Signaling Technology, Danvers, MA, USA; cat #9271S; 1:1000), anti-phospho-ERK1/2 (Cell Signaling Technology, Danvers, MA, USA; cat #9101S; 1:1000), anti-LRP1 (Cell Signaling Technology, Danvers, MA, USA; cat #64099S; 1:1000) or anti total-ERK1/2 (Cell Signaling Technology, Danvers, MA, USA; cat #91012S; 1:1000). Immunoblots were developed using Radiance, Radiance Q, and Radiance Plus chemiluminescent substrates and imaged using a BioRad ChemiDoc Imaging System (Bio-Rad, Hercules, CA, USA).
# [3] = test system: C57BL/6J mice; test: Intraplantar capsaicin model of acute nociception; type: in vivo; conditions: male mice, 2 μg/g 1 h before capsaicin, 10 min
# Procedure: For the capsaicin studies, male (n=41) and female (n=37) mice were acclimated to the behavior testing facility for at least 1 h. Capsaicin was dissolved in 20% (2-hydroxypropyl)-β-cyclodextrin (Sigma-Aldrich, St. Louis, MO, USA) solution. […] Subsequently, 10 μl of 2 μg/μl capsaicin solution was injected into the plantar area of left hind paw. Immediately after capsaicin injection, mice were placed in a plexiglass box. Two observers, blinded to treatments, recorded the time spent licking and flinching the left hind paw over 10 min.
# [4] = biological target: LRP1 (low-density lipoprotein receptor-related protein 1) on rat PC12 cells (rat) (UniProt G3V928); test: cell-based or functional assay
# [5] = test system: STAT6; test: IL-13 stimulated STAT6 phosphorylation in esophageal EPC2 cells (western blot); type: cell-based, Human; conditions: 30 minutes post IL-13 induction
# Procedure: Esophageal EPC2 cells were treated with vehicle (ddw), A1AT or SP163M. Cells were collected at time-points indicated and western blot analysis of phospho-specific STAT6 was analyzed. […] Using CRISPER/CAS9 technology, an LRP1 knockout esophageal EPC2 cell line was created.
# [6] = test system: CCL24; test: OVA-challenge allergic inflammation model, BALF CCL24 via ELISA; type: in vivo; conditions: treated during OVA challenge phase, sensitized mice
# Procedure: (§1) Mice were subjected to the OVA-challenge allergic inflammation model and treated with vehicle or SP16 during the challenge phase. The bronchoalveolar lavage fluid (BALF) was analyzed for cytokines via ELISA.
# [7] = test system: IL-4; test: MC903 AD model, IL-4 in ear lysate via ELISA; type: in vivo, mice; conditions: topical
# Procedure: (§2) Mice were treated with SP16 in 70% EtOH (MC903+SP16) or drug vehicle (MC903). Normal control (NC) mice were treated with EtOH only. Ears were measured for PAR2 protein expression through western blot analysis (quantitative analysis after normalization to beta-actin shown) (n=3-5). TSLP was measured in both the ears and serum by ELISA (N=3-5). Scratching was assessed over a 3 minute period after a 5-minute acclimatization period and the number of scratches are shown (n=3). IL-4 was measured in ear lysate via ELISA (N=3-5).
# [8] = test system: IL-2; test: OVA-challenge allergic inflammation model, BALF IL-2 via ELISA; type: in vivo; conditions: treated during OVA challenge phase, sensitized mice
# Procedure: as §1
# [9] = test system: TSLP; test: Poly I:C-induced TSLP production by SPINK7 knockout EPC2 cells (ELISA); type: cell-based, Human; conditions: SPINK7 knockout esophageal cells, Poly I:C 5 μg/ml, 8 hours
# Procedure: FIG. 12A: Poly I:C-induced TSLP production by SPINK7 knockout EPC2 cells (Human esophageal epithelial cells). SPINK7 KO cells and control cells were plated in high calcium and high density, for 48 hours before being treated with SP16 or 7G and Poly I:C (5 μg/ml, or untreated) for 8 hours. TSLP production in the supernatant was measured by ELISA. FIG. 12B: primary esophageal epithelial cells (EPC2) were treated with SP16 and then stimulated with IL-13, a TH2 response mediated cytokine, to induce CCL26.
# SP16 reduces several key cytokines involved in allergic responses. Upon knockout of SPINK7, esophageal epithelial cells release exacerbated levels of TSLP. TSLP is a key mediator of immune cell responses upon activation to an insult such as allergens.
# [10] = test system: CCL26; test: CCL26 release by esophageal epithelial cells (EPC2); type: cell-based, Human
# [11] = test system: mice; test: MC903 AD-like inflammatory skin model, topical treatment (dermatitis score, ear volume, scratching); type: in vivo
# Procedure: SP16 (in 70% ethanol) was applied topically to the ears on the days of the MC903 applications (MC903+SP16). Drug vehicle (70% EtOH) was applied to control animals (MC903) and normal control animals (NC) received EtOH in place of MC903. In-life parameters: Dermatitis score (FIG. 16A) and ear volume (FIG. 16B) measured on days 0, 3, 7, 9, 11 and 14. […] Clinical Dermatitis Score (score 0-4 for each parameter)—erythema, scale/dryness, edema, excoriation/erosion (total score 0-16).
# as §2
# [12] = test system: mice; test: OVA-induced allergic inflammation model, eosinophils in BALF by flow cytometry; type: in vivo
# Procedure: FIG. 15A: mice were subjected to the OVA-challenge allergic inflammation model and treated with vehicle, SP16, or A1AT during the challenge phase. The BALF was collected and analyzed for the percent of eosinophils and compared to saline (non-challenged) mice, vehicle OVA induced mice, or SP16 treated OVA induced mice.
# The impact of SP16 treatment on eosinophilic infiltration in mice was assessed using the OVA-induced allergic inflammation model. The number of eosinophils in the bronchoalveolar lavage fluid was quantified by flow cytometry.
# [13] = test system: TSLP; test: MC903 AD model, TSLP in ears and serum by ELISA; type: in vivo; conditions: topical, vs MC903 treated mice
# Procedure: as §2
# [14] = test system: PAR2; test: MC903 AD model, PAR2 protein expression in ears (western blot); type: in vivo, mice; conditions: topical, normalized to beta-actin
# Procedure: as §2
# [15] = test system: IL-1a; test: OVA-challenge allergic inflammation model, BALF IL-1a via ELISA; type: in vivo; conditions: treated during OVA challenge phase, sensitized mice
# Procedure: as §1
# [16] = test system: NFκB; test: NFκB reporter assay (THP1-XBlue-MD2-CD14 cells, LPS, SEAP read-out); type: cell-based; conditions: without LPS
# T1 sequence (G3V928 20-3944 limits assumed): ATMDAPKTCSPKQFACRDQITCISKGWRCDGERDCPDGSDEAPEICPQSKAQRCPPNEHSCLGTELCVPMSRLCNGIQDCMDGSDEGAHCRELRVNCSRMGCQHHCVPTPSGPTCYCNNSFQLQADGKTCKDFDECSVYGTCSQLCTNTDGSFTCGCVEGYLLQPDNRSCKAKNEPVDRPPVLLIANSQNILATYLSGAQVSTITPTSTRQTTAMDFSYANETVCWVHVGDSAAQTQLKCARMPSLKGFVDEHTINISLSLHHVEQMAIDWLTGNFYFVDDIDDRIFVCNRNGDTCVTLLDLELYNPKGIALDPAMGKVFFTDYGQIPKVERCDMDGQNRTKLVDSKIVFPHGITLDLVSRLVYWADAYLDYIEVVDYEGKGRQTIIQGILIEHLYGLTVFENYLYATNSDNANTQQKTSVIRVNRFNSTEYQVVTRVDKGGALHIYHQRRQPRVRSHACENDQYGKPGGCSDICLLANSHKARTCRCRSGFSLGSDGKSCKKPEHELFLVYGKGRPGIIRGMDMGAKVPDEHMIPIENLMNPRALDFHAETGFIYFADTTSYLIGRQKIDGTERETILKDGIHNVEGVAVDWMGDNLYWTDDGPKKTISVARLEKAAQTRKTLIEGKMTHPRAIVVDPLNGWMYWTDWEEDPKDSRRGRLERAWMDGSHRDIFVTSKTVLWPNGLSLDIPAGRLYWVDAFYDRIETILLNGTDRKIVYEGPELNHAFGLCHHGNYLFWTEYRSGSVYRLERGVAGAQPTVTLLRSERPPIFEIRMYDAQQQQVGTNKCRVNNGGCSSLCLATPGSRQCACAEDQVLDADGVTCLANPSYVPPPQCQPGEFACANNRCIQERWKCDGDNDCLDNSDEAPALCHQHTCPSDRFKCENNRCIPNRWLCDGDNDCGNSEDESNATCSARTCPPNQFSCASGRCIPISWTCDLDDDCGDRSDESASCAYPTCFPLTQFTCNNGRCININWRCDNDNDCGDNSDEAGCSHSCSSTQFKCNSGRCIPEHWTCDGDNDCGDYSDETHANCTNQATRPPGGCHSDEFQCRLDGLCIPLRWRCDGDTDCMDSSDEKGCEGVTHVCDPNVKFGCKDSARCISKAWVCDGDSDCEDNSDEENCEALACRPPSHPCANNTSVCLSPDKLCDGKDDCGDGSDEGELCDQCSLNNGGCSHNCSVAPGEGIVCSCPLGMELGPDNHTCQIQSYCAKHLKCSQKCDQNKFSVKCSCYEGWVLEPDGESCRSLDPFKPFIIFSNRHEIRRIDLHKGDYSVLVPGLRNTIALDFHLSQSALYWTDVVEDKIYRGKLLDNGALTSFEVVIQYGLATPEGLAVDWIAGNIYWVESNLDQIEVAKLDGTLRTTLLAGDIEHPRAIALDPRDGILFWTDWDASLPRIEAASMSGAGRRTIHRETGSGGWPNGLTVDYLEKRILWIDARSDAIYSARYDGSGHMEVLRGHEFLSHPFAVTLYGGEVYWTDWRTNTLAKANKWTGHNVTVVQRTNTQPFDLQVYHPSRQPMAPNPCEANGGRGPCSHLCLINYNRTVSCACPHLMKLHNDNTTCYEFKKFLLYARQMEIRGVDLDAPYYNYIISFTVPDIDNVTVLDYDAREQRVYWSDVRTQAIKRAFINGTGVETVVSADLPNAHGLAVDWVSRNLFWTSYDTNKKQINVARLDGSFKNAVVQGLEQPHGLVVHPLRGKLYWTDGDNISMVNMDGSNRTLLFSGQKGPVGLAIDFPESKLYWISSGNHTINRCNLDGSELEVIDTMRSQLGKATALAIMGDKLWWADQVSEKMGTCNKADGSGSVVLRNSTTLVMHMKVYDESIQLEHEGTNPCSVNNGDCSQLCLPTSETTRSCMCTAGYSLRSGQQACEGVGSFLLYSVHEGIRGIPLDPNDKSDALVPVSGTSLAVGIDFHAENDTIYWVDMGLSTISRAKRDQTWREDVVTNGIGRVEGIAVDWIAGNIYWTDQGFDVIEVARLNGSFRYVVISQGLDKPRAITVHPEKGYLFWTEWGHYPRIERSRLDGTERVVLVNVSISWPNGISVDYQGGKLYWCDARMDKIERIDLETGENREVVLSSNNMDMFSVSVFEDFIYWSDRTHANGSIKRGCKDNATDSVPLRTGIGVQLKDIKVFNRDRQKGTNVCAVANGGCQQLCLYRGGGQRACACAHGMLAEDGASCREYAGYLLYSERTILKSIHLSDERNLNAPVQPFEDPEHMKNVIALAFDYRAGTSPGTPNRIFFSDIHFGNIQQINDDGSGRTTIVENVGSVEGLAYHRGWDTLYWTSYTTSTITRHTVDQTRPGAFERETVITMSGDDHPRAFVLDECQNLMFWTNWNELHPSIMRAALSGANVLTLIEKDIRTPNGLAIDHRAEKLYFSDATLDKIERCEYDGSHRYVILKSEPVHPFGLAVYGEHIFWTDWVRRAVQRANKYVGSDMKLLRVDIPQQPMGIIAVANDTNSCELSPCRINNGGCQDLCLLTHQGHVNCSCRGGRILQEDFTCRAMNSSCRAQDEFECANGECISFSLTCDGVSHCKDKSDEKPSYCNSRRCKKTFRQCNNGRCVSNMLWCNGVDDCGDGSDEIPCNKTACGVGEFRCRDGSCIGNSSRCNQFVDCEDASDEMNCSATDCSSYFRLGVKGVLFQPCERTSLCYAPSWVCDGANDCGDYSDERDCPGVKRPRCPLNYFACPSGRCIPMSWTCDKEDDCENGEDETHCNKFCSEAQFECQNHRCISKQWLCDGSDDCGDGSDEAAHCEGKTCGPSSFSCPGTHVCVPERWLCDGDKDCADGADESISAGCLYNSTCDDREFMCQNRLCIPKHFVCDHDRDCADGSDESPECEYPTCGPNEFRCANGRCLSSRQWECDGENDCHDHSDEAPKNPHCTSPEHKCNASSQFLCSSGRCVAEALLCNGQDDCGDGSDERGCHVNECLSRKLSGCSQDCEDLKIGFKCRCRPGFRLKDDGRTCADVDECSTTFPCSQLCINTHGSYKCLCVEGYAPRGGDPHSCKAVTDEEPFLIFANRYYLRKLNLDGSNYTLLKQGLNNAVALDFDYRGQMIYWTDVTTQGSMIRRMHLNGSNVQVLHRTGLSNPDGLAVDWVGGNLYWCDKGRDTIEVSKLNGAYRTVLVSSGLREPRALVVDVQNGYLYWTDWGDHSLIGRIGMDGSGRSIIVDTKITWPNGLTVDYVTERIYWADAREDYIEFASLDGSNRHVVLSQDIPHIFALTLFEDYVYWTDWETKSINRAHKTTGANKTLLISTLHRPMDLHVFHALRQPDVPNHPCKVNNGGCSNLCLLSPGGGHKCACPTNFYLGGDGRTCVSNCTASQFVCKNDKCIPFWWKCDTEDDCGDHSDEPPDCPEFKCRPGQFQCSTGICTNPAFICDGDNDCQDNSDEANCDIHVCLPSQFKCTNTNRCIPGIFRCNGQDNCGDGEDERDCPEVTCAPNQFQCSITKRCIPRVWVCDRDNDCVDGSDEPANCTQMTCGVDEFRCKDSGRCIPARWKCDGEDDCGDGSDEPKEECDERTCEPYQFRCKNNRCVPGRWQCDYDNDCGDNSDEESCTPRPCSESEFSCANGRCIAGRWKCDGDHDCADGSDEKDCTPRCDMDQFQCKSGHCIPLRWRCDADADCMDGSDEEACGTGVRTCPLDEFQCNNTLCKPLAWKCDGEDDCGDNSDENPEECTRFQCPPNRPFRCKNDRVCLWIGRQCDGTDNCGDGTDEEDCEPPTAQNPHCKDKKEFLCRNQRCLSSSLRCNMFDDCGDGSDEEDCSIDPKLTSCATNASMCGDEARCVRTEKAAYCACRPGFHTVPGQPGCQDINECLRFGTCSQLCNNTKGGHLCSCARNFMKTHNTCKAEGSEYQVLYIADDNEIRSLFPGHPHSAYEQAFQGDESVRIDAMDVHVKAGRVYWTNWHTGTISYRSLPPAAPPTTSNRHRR
# T1 sequence (G3V928 3945-4545 partner limits assumed): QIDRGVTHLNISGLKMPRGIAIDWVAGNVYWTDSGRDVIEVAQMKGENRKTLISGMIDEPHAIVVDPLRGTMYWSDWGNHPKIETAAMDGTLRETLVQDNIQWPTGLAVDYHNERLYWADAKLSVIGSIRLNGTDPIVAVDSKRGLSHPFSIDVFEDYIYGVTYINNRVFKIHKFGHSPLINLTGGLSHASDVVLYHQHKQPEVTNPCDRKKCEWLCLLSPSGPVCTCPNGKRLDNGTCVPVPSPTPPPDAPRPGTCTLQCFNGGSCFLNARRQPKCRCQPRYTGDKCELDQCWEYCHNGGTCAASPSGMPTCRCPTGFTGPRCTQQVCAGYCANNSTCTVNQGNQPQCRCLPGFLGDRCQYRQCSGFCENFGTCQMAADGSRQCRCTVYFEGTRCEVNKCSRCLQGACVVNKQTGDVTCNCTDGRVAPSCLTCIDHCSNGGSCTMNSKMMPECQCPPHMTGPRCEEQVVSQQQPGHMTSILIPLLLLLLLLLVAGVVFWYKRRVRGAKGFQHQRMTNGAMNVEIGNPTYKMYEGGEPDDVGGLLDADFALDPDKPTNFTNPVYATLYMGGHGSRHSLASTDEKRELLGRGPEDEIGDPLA
substance,measurement,setting,value
V R F N R P F L (VRFNRPFL) [SP31],NFκB activity (NFκB inducible SEAP in supernatant),[1],the anti-inflammatory activity of the peptide was lost
"EI-tPA: Recombinant human EI-tPA, derivative of tissue-type plasminogen activator, known LRP1 agonist [reference compound]",activation of ERK1/2 in cells transfected with LRP1-specific siRNA,[2]; 48 h after transfection,ERK1/2 was not activated
same,activation of ERK1/2 in cells transfected with NTC siRNA,[2]; 48 h after transfection,also robustly activated ERK1/2
same,capsaicin induced acute pain-related behavior (time spent licking),[3],blocked the capsaicin induced acute pain-related behavior
R R R V R F N R P F L R R R (RRRVRFNRPFLRRR) [SP32],NFκB activity (NFκB inducible SEAP in supernatant),[1],could not be restored with the poly arginine flanks
Receptor associated protein expressed as a glutathione-S-transferase fusion protein (GST-RAP),block of SP163M-induced phospho-Akt and phospho-ERK1/2 in PC12 cells (immunoblot); concentration of RAP used,[4],150 nM
"FPKMVPQFNTELKIFPEVNIK (FPKMVPQFNTELKIFPEVNIK) [SP34, reference compound]",NFκB activity (NFκB inducible SEAP in supernatant),[1],neither the scrambled core control peptide nor the AAT 0-36 fragment decreased the NFκB activity
"NGF: NGF-β purchased from Sigma, cell signaling control [reference compound]",activation of ERK1/2 (cell signaling control),"[2]; 0.36 nM, 10 min",also activated ERK1/2
R R R V K F N K P F V F L M R R R (RRRVKFNKPFVFLMRRR) [SP22],NFκB activity (NFκB inducible SEAP in supernatant),[1],the NFκB activity was significantly reduced
"A1AT: alpha-1 antitrypsin, the prototypical SERPIN",STAT6 phosphorylation,[5],STAT6 was phosphorylated in vehicle and A1AT treated cells
V K F N K P F V F L M I E Q N T K (VKFNKPFVFLMIEQNTK; SP16 peptide core sequence including the LRP1 binding site; listed as Homo sapiens),CCL24 in BALF,[6],significantly reduces CCL24 following OVA-challenge in sensitized mice
same,IL-4 release in the skin tissue,[7],significantly reduced in SP16-treated animals
same,IL-2 in BALF,[8],significantly reduces IL-2 following OVA-challenge in sensitized mice
same,Poly I:C mediated TSLP release,[9],effective in significantly reducing Poly I:C mediated TSLP and CCL26 release
same,activation of ERK1/2 over time,"[2]; 240 nM, 0-30 min",robustly activated ERK1/2 from 5 to 30 min
same,lowest concentration activating phospho-ERK1/2,[2]; 10 min,24 nM
same,activation of ERK1/2 in cells transfected with NTC siRNA,[2]; 48 h after transfection,ERK1/2 was robustly activated
same,CCL26 release,[10]; EPC2 cells stimulated with IL-13,significantly reduced CCL26 release dose dependently
same,Poly I:C mediated CCL26 release,[10]; SPINK7 knockout esophageal cells,effective in significantly reducing Poly I:C mediated TSLP and CCL26 release
same,"disease improvement (dermatitis score, ear volume)","[11]; topical solution (1%) in 70% ethanol, 14-day period, vs vehicle",a significant improvement in disease vs. vehicle-treated mice
same,pruritis (number of scratches),"[11]; topical, vs vehicle (MC903) treated mice",significantly reduces pruritis compared to vehicle (MC903) treated mice
same,NFκB activity (NFκB inducible SEAP in supernatant),[1],capable of reducing NFκB activity
same,eosinophil infiltration into the lungs (BALF),[12],significantly (p=0.04) reduces eosinophil infiltration into the lungs
same,systemic (serum) and local (ear) TSLP,[13],a significant reduction in systemic (serum) and local (ear) TSLP compared to MC903 treated mice
same,PAR2 protein expression in ears,[14],PAR2 and TSLP inhibition
same,IL-1a in BALF,[15],significantly reduces IL-1a following OVA-challenge in sensitized mice
RRRVKFNKPFVFLMIEQNTKRRR (RRRVKFNKPFVFLMIEQNTKRRR) [SP21],NFκB activity (NFκB inducible SEAP in supernatant),[1],NFkB inhibition increased as well relative to SP16
"SIPPEVKFNKPFVFLMIEQNTKSPLFMGKVVNP (SIPPEVKFNKPFVFLMIEQNTKSPLFMGKVVNP; SP16 peptide core sequence including the LRP1 binding site; listed as Homo sapiens) [SP8, reference compound]",NFκB activity (NFκB inducible SEAP in supernatant),[1],neither the scrambled core control peptide nor the AAT 0-36 fragment decreased the NFκB activity
same,NFkB induction by the peptide alone,[16],showed NFkB inducible properties without the need for LPS
V K F N K P F V F L M (VKFNKPFVFLM) [SP20],NFκB activity (NFκB inducible SEAP in supernatant),[1],did not have an inhibitory effect
